Where two headings read alike, the source gives them in different places.
Experiments:
muscarinic receptors [1] = format: binding, Hooded Lister rats; details: 0.27nM 3H-QNB, rat cerebral cortex, tris pH 7.7, 37° C., 30 min
muscarinic receptors [2] = experiment: Radio ligand binding: displacement of muscarinic agonist 3H-Oxotremorine-M (3H-OXO-M) from rat cerebral cortex membranes; design: species or system Hooded Lister rats; details: 2nM 3H-OXO-M, 2mM magnesium chloride, tris pH 7.7, 37° C., 30 min

SMILES | IC50 (muscarinic receptors [1]) | IC50 (muscarinic receptors [2])
Nc1nc(C23CCCN(CC2)C3)co1 (racemic) [Example E1, (±) 5-(2-Amino-1,3-oxazol-4-yl)-1-azabicyclo[3.2.1]octane] | 42 µM | 0.25 µM
Nc1ncc(C2CN3CCC2CC3)o1 (racemic) [Example E2, (±) 3-(2-Amino-1,3-oxazol-5-yl)-1-azabicyclo[2.2.2]octane] | 17 µM | 0.44 µM
Nc1ncc(C23CCCN(CC2)C3)o1 (racemic) [Example E3, (±) 5-(2-Amino-1,3-oxazol-5-yl)-1-azabicyclo[3.2.1]-octane] | 3.5 µM | 0.004 µM
Nc1nc(C23CCCN(CC2)C3)cs1 (racemic) [Example E4, (±5-(2-Amino-1,3-thiazol-4-yl)-1-azabicyclo[3.2.1]octane] | 5.6 µM | 0.28 µM
Nc1ncc(C2CN3CCC2C3)o1 (racemic) [Example E6, (±) exo and endo 3-(2-Amino-1,3-oxazol-5-yl)-1-azabicyclo[[2.2.1]heptane] | 10.3 µM | 0.2 µM
COC(=O)c1ncc(C23CCCN(CC2)C3)o1 (racemic) [Example E9, (±)5-(2-Methoxycarbonyl-1,3-oxazol-5-yl)-1-azabicyclo [3.2.1]octane] | 30.5 µM | 2 µM
OCc1ncc(C23CCCN(CC2)C3)o1 (racemic) [Example E10, (±)5-(2-Hydroxymethyl-1,3-oxazol-5-yl)-1-azabicyclo [3.2.1]octane] | 7 µM | 0.206 µM
COCc1ncc(C23CCCN(CC2)C3)o1 (racemic) [Example E11, (±)5-(2-Methoxymethyl-1,3-oxazol-5-yl)-1-azabicyclo [3.2.1]octane] | 2.6 µM | 0.22 µM
FCc1ncc(C23CCCN(CC2)C3)o1 (racemic) [Example E12, (±)5-(2-Fluoromethyl-1,3-oxazol-5-yl)-1-azabicyclo [3.2.1]octane] | 0.44 µM | 0.005 µM
N#Cc1ncc(C23CCCN(CC2)C3)o1 (racemic) [Example E13, (±)5-(2-Cyano-1,3-oxazol-5-yl)-1-azabicyclo[3.2.1]octane] | 2.8 µM | 0.38 µM
Nc1ncc([C@H]2C[C@@H]3CCN(C3)C2)o1 (relative stereo) [Example E16, (±) exo 3-(2-Amino-1,3-oxazol-5-yl)-1-azabicyclo[3.2.1]octane] | 42 µM | 0.56 µM
Nc1ncc(C23CCN(CC2)C3)o1 [Example E5] | 11 µM | 0.018 µM
COCc1ncc(C23CCN(CC2)C3)o1 [Example E17, 4-(2-Methoxymethyl-1,3-oxazol-5-yl)-1-azabicyclo[2.2.1]-heptane] | 60 µM | 1.05 µM
